According to patent US12466804B2 (BRISTOL-MYERS SQUIBB COMPANY, priority 2019, dated 2025):

Each compound was assayed against T1, human LPA1 (Homo sapiens, UniProt Q92633) (assay: LPA1 functional antagonist assay (LPA-induced calcium flux)). Conditions: CHO cells overexpressing human LPA1; calcium flux induced by 10 nM LPA; read-out: hLPA1 IC50.
T1 construct: expressed in transfected cells; host or cells: Chinese hamster ovary (CHO) cells
Format: cell-based
Method: The effectiveness of compounds of the present invention as LPA1 inhibitors can be determined in an LPA1 functional antagonist assay as follows:
The cells were then equilibrated to room temperature for 30 minutes before the assay. […] IC50 values were determined by fitting data to a 4-parameter logistic equation (GraphPad Prism, San Diego CA).

T1 sequence (Q92633 whole entry): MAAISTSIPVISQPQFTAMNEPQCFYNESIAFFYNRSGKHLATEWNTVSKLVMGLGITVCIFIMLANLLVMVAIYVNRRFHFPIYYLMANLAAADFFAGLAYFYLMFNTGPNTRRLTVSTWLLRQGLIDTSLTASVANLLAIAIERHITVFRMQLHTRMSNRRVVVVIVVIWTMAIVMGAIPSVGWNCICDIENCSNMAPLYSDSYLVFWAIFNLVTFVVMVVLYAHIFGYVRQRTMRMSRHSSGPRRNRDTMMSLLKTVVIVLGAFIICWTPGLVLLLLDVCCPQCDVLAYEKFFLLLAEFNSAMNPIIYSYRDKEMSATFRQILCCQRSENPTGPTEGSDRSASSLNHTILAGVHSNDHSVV

| SMILES | IC50 [nM] |
| --- | --- |
| Cc1noc(-c2ccc(OC[C@@H]3CC[C@H]3C(=O)O)cc2)c1COC(=O)N(C)C1CCCC1 (racemic) [Example 1, (±)-(1R,2R)-2-((4-(4-(((cyclopentyl(methyl)carbamoyl)oxy)methyl)-3-methylisoxazol-5-yl)phenoxy)methyl)cyclobutane-1-carboxylic acid] | 187 |
| Cc1noc(-c2ccc(OC[C@@H]3CC[C@H]3C(=O)O)cn2)c1CNc1nccc(-c2ccccn2)n1 (racemic) [Example 2, (±)-(1R,2R)-2-(((6-(3-methyl-4-(((4-(pyridin-2-yl)pyrimidin-2-yl)amino)methyl)isoxazol-5-yl)pyridin-3-yl)oxy)methyl)cyclobutane-1-carboxylic acid] | 15.4 |
| Cc1nc(-c2onc(C)c2CNc2nccc(-c3ccccn3)n2)ccc1OC[C@@H]1CC[C@H]1C(=O)O (racemic) [Example 5, (±)-(1R,2R)-2-(((2-methyl-6-(3-methyl-4-(((4-(pyridin-2-yl)pyrimidin-2-yl)amino)methyl)isoxazol-5-yl)pyridin-3-yl)oxy)methyl)cyclobutane-1-carboxylic acid] | 18 |
| Cc1nc(-c2nnn(C)c2COC(=O)N(C)CC2CCC2)ccc1OC[C@@H]1CC[C@H]1C(=O)O (racemic) [Example 6, (±)-(1R,2R)-2-(((6-(5-((((cyclobutylmethyl)(methyl)carbamoyl)oxy)methyl)-1-methyl-1H-1,2,3-triazol-4-yl)-2-methylpyridin-3-yl)oxy)methyl)cyclobutane-1-carboxylic acid] | 27 |
| CCc1cc(OCc2c(-c3ccc(OC[C@@H]4CC[C@H]4C(=O)O)c(C)n3)nnn2C)ncn1 (racemic) [Example 11, (±)-(1R,2R)-2-(((6-(5-(((6-ethylpyrimidin-4-yl)oxy)methyl)-1-methyl-1H-1,2,3-triazol-4-yl)-2-methylpyridin-3-yl)oxy)methyl)cyclobutane-1-carboxylic acid] | 42 |
| CCc1ccnc(OCc2c(-c3ccc(OC[C@@H]4CC[C@H]4C(=O)O)c(C)n3)nnn2C)n1 (racemic) [Example 14, (±)-(1R,2R)-2-(((6-(5-(((4-ethylpyrimidin-2-yl)oxy)methyl)-1-methyl-1H-1,2,3-triazol-4-yl)-2-methylpyridin-3-yl)oxy)methyl)cyclobutane-1-carboxylic acid] | 382 |
| Cc1nc(-c2nnn(C)c2COc2noc(C3CC3)n2)ccc1OC[C@@H]1CC[C@H]1C(=O)O (racemic) [Example 15, (±)-(1R,2R)-2-(((6-(5-(((5-cyclopropyl-1,2,4-oxadiazol-3-yl)oxy)methyl)-1-methyl-1H-1,2,3-triazol-4-yl)-2-methylpyridin-3-yl)oxy)methyl)cyclobutane-1-carboxylic acid] | 128 |
| Cc1nc(-c2nnn(C)c2COc2noc(C(C)C)n2)ccc1OC[C@@H]1CC[C@H]1C(=O)O (racemic) [Example 16, (±)-(1R,2R)-2-(((6-(5-(((5-isopropyl-1,2,4-oxadiazol-3-yl)oxy)methyl)-1-methyl-1H-1,2,3-triazol-4-yl)-2-methylpyridin-3-yl)oxy)methyl)cyclobutane-1-carboxylic acid] | 25 |
| Cc1nc(-c2nnn(C)c2COc2cc(OC3CC3)ncn2)ccc1OC[C@@H]1CC[C@H]1C(=O)O (racemic) [Example 17, (±)-(1R,2R)-2-(((6-(5-(((6-cyclopropoxy-pyrimidin-4-yl)oxy)methyl)-1-methyl-1H-1,2,3-triazol-4-yl)-2-methylpyridin-3-yl)oxy)methyl)cyclobutane-1-carboxylic acid] | 66 |
| Cc1nc(-c2nnn(C)c2COc2cc(C3CC3)ncn2)ccc1OC[C@@H]1CC[C@H]1C(=O)O (racemic) [Example 18, (±)-(1R,2R)-2-(((6-(5-(((6-cyclopropyl-pyrimidin-4-yl)oxy)methyl)-1-methyl-1H-1,2,3-triazol-4-yl)-2-methylpyridin-3-yl)oxy)methyl)cyclobutane-1-carboxylic acid] | 83 |
| COc1cc(OCc2c(-c3ccc(OC[C@@H]4CC[C@H]4C(=O)O)c(C)n3)nnn2C)ncn1 (racemic) [Example 19, (±)-(1R,2R)-2-(((6-(5-(((6-methoxy-pyrimidin-4-yl)oxy)methyl)-1-methyl-1H-1,2,3-triazol-4-yl)-2-methylpyridin-3-yl)oxy)methyl)cyclobutane-1-carboxylic acid] | 121 |
| CCOc1ccnc(NCc2c(-c3ccc(OC[C@@H]4CC[C@H]4C(=O)O)c(C)n3)nnn2C)n1 (racemic) [Example 21, (±)-(1R,2R)-2-(((6-(5-(((4-ethoxy-pyrimidin-2-yl)amino)methyl)-1-methyl-1H-1,2,3-triazol-4-yl)-2-methylpyridin-3-yl)oxy)methyl)cyclobutane-1-carboxylic acid] | 24 |
| Cc1nc(-c2nnn(C)c2CNc2nccc(Oc3ccccc3)n2)ccc1OC[C@@H]1CC[C@H]1C(=O)O (racemic) [Example 22, (±)-(1R,2R)-2-(((2-methyl-6-(1-methyl-5-(((4-phenoxypyrimidin-2-yl)amino)methyl)-1H-1,2,3-triazol-4-yl)pyridin-3-yl)oxy)methyl)cyclobutane-1-carboxylic acid] | 149 |
| Cc1nc(-c2nnn(C)c2CNc2nccc(C(C)C)n2)ccc1OC[C@@H]1CC[C@H]1C(=O)O (racemic) [Example 23, (±)-(1R,2R)-2-(((6-(5-(((4-isopropyl-pyrimidin-2-yl)amino)methyl)-1-methyl-1H-1,2,3-triazol-4-yl)-2-methylpyridin-3-yl)oxy)methyl)cyclobutane-1-carboxylic acid] | 117 |
| Cc1nc(-c2nnn(C)c2CNc2nccc(-c3ccccn3)n2)ccc1OC[C@@H]1CC[C@H]1C(=O)O (racemic) [Example 26, (±)-(1R,2R)-2-(((2-methyl-6-(1-methyl-5-(((4-(pyridin-2-yl)pyrimidin-2-yl)amino)methyl)-1H-1,2,3-triazol-4-yl)pyridin-3-yl)oxy)methyl)cyclobutane-1-carboxylic acid] | 56 |
| Cn1nnc(-c2ccc(OC[C@@H]3CC[C@H]3C(=O)O)cn2)c1CNc1nccc(-c2ccccn2)n1 (racemic) [Example 27, (±)-(1R,2R)-2-(((6-(1-methyl-5-(((4-(pyridin-2-yl)pyrimidin-2-yl)amino)methyl)-1H-1,2,3-triazol-4-yl)pyridin-3-yl)oxy)methyl)cyclobutane-1-carboxylic acid] | 49 |
| Cc1nc(-c2nnn(C)c2COC(=O)N(C)CC2CC2)ccc1OC[C@@H]1CC[C@H]1C(=O)O (racemic) [Example 31, (±)-(1R,2R)-2-(((6-(5-((((Cyclopropylmethyl)(methyl)carbamoyl)oxy)methyl)-1-methyl-1H-1,2,3-triazol-4-yl)-2-methylpyridin-3-yl)oxy)methyl) cyclobutanecarboxylic acid] | 184 |
| Cc1nc(-c2nnn(C)c2CNC(=O)OCc2ccccc2)ccc1OC[C@@H]1CC[C@H]1C(=O)O (racemic) [Example 32, (±)-(1R,2R)-2-(((6-(5-((((Benzyloxy)carbonyl)amino)methyl)-1-methyl-1H-1,2,3-triazol-4-yl)-2-methylpyridin-3-yl)oxy)methyl)cyclobutanecarboxylic acid] | 70 |
| Cc1nc(-c2nnn(C)c2CNC(=O)OCCC2CC2)ccc1OC[C@@H]1CC[C@H]1C(=O)O (racemic) [Example 33, (±)-(1R,2R)-2-(((6-(5-((((2-Cyclopropylethoxy)carbonyl)amino)methyl)-1-methyl-1H-1,2,3-triazol-4-yl)-2-methylpyridin-3-yl)oxy)methyl)cyclobutanecarboxylic acid] | 326 |
| Cc1nc(-c2nnn(C)c2NC(=O)OCC(C)C)ccc1OC[C@@H]1CC[C@H]1C(=O)O (racemic) [Example 34, (±)-(1R,2R)-2-(((6-(5-((Isobutoxycarbonyl)amino)-1-methyl-1H-1,2,3-triazol-4-yl)-2-methylpyridin-3-yl)oxy)methyl)cyclobutane-1-carboxylic acid] | 1190 |
| Cc1nc(-c2nnn(C)c2CNc2nccc(-c3ccccc3)n2)ccc1OC[C@@H]1CC[C@H]1C(=O)O (racemic) [Example 35, (±)-(1R,2R)-2-(((2-Methyl-6-(1-methyl-5-(((4-phenylpyrimidin-2-yl)amino)methyl)-1H-1,2,3-triazol-4-yl)pyridin-3-yl)oxy)methyl)cyclobutanecarboxylic acid] | 49 |
| Cc1nc(-c2nnn(C)c2Cn2nnc(CC3CC3)n2)ccc1OC[C@@H]1CC[C@H]1C(=O)O (racemic) [Example 36, (±)-(1R,2R)-2-(((6-(5-((5-(Cyclopropylmethyl)-2H-tetrazol-2-yl)methyl)-1-methyl-1H-1,2,3-triazol-4-yl)-2-methylpyridin-3-yl)oxy)methyl)cyclobutane-1-carboxylic acid] | 86 |
| Cc1nc(-c2nnn(C)c2Cn2nnnc2CC2CC2)ccc1OC[C@@H]1CC[C@H]1C(=O)O (racemic) [Example 37, (±)-(1R,2R)-2-(((6-(5-((5-(Cyclopropylmethyl)-1H-tetrazol-1-yl)methyl)-1-methyl-1H-1,2,3-triazol-4-yl)-2-methylpyridin-3-yl)oxy)methyl)cyclobutane-1-carboxylic acid] | 267 |
| Cc1nc(-c2nnn(C)c2CNc2ncc(-c3ccccn3)o2)ccc1OC[C@@H]1CC[C@H]1C(=O)O (racemic) [Example 40, (±)-(1R,2R)-2-(((2-methyl-6-(1-methyl-5-(((5-(pyridin-2-yl)oxazol-2-yl)amino)methyl)-1H-1,2,3-triazol-4-yl)pyridin-3-yl)oxy)methyl)cyclobutanecarboxylic acid] | 520 |
| Cc1nc(-c2nnn(C)c2CNC(=O)OCC(C)C)ccc1OC[C@@H]1CC[C@H]1C(=O)O (racemic) [Example 41, (±)-(1R,2R)-2-(((6-(5-(((isobutoxy-carbonyl)amino)methyl)-1-methyl-1H-1,2,3-triazol-4-yl)-2-methy-lpyridin-3-yl)oxy)methyl)cyclobutanecarboxylic acid] | 3750 |
